Source: the NIST ThermoML archive (doi:10.1016/j.fluid.2016.12.025)

Experiments:
[1] = 298.2 K; 101.33 kPa; Liquid; Vibrating tube method
[2] = refractive index (Na D-line) (dimensionless); conditions: 298.2 K; 101.33 kPa; Liquid; Standard Abbe refractometry
[3] = xn = mol fraction of the nth substance listed; conditions: 298.2 K, 101 kPa, Liquid, Vibrating tube method
[4] = refractive index (Na D-line) (dimensionless); xn = mol fraction of the nth substance listed; conditions: 298.2 K, 101 kPa, Liquid, Standard Abbe refractometry

CCCCO [butan-1-ol]
Conditions	mass density [kg/m3]	refractive index
[1]	806.01	–
[2]	–	1.3973

CCCCCCO [hexan-1-ol]
Conditions	mass density [kg/m3]	refractive index
[1]	815.88	–
[2]	–	1.4161

CC(C)CCO [3-methylbutan-1-ol] + CCCCCCO
Conditions	mass density, [3] [kg/m3]	refractive index, [4]
x1 = 0.0496	815.43	1.4154
x1 = 0.0997	815.12	1.4149
x1 = 0.2005	814.49	1.414
x1 = 0.3003	813.86	1.4131
x1 = 0.3986	813.22	1.4121
x1 = 0.4998	812.55	1.4111
x1 = 0.6001	811.87	1.4101
x1 = 0.7002	811.17	1.4091
x1 = 0.8	810.46	1.4081
x1 = 0.8998	809.73	1.4069
x1 = 0.9504	809.35	1.4064

CC(C)CCO [3-methylbutan-1-ol] + CCCCO
Conditions	mass density, [3] [kg/m3]	refractive index, [4]
x2 = 0.0498	808.87	1.4056
x2 = 0.0999	808.78	1.4053
x2 = 0.1999	808.58	1.4045
x2 = 0.3	808.35	1.4037
x2 = 0.4	808.09	1.4029
x2 = 0.4999	807.81	1.402
x2 = 0.6016	807.5	1.4009
x2 = 0.7015	807.16	1.3998
x2 = 0.7999	806.8	1.3988
x2 = 0.9007	806.41	1.3981
x2 = 0.9506	806.21	1.3978

CC(C)CCO [3-methylbutan-1-ol]
Conditions	mass density [kg/m3]	refractive index
[1]	808.94	–
[2]	–	1.4061

CC(C)CCO [3-methylbutan-1-ol] + CCCCOC(C)=O
Conditions	mass density, [3] [kg/m3]	refractive index, [4]
x2 = 0.0497	812.53	1.4049
x2 = 0.104	816.52	1.4039
x2 = 0.1998	823.52	1.4021
x2 = 0.2999	830.68	1.4005
x2 = 0.3999	837.66	1.399
x2 = 0.5001	844.46	1.3976
x2 = 0.6006	851.08	1.3962
x2 = 0.7	857.56	1.395
x2 = 0.8003	863.93	1.3939
x2 = 0.9005	870.23	1.3928
x2 = 0.9466	873.08	1.3923

CCCCOC(C)=O [butyl ethanoate]
Conditions	mass density [kg/m3]	refractive index
[1]	876.26	–
[2]	–	1.3918

CCCCOC(C)=O [butyl ethanoate] + CCCCCCO
Conditions	mass density, [3] [kg/m3]	refractive index, [4]
x1 = 0.0503	818.79	1.4144
x1 = 0.1001	821.75	1.4131
x1 = 0.2012	827.7	1.4104
x1 = 0.3007	833.61	1.4078
x1 = 0.4001	839.54	1.4053
x1 = 0.4999	845.54	1.4029
x1 = 0.6004	851.63	1.4005
x1 = 0.6991	857.64	1.3982
x1 = 0.8003	863.85	1.396
x1 = 0.8953	869.76	1.3939
x1 = 0.9452	872.86	1.3929

CCCCCCO [hexan-1-ol] + CCCCO
Conditions	mass density, [3] [kg/m3]	refractive index, [4]
x2 = 0.0543	815.53	1.4148
x2 = 0.099	815.22	1.4142
x2 = 0.2042	814.42	1.4126
x2 = 0.2993	813.64	1.4111
x2 = 0.4052	812.7	1.4094
x2 = 0.4994	811.8	1.4078
x2 = 0.5938	810.85	1.406
x2 = 0.7005	809.72	1.4038
x2 = 0.8004	808.58	1.4017
x2 = 0.9003	807.35	1.3997
x2 = 0.9499	806.7	1.3985
